Laboratory results reported in patent US10633386B2, “BET protein degraders” (THE REGENTS OF THE UNIVERSITY OF MICHIGAN, priority 2016, dated 2020).

What was measured:
TNBC cell lines [1] = test: Combination apoptosis induction (immunoblotting and/or Annexin-PI staining); format: cell-based; details: for effect on Cpd. No. 4-induced apoptosis: MDA-MB-468, 250 nM with Cpd. No. 4 50 nM (FIG. 14)
Experimental: Immunoblotting and/or Annexin-PI staining confirmed that BM-1197 (250 nM), ABT-263 (250 nM), and A-1155463 (250 nM) potentiated Cpd. No. 4-induced apoptosis (50 nM) in MDA-MB-468 (FIG. 14) and other TNBC cell lines (data not shown). Synergistic induction of apoptosis by Cpd. […] No. 4-induced apoptosis in these cell lines. […] A with either BM-1197 (FIGS. 15 and 16) or ABT-263 (data not shown). […] No. 4 and BM-1197 was also detected in additional TNBC cell lines responsive to Cpd. No. 4-induced apoptosis (BT-20 and MDA-MB-157) (data not shown), further supporting that BCL-XL inhibitors potentiate Cpd. No. 4-induced apoptosis in TNBC.

TNBC cell lines [2] = test: Combination growth inhibition with BCL-2/BCL-XL inhibitors (Bliss independence model); format: cell-based; details: 6 of the 7 TNBC cell lines tested (data not shown)
Experimental: MCL1 and BCL-XL are important but independent determinants of cell survival in TNBC (Goodwin et al., Cell Death Differ 22:2098-106 (2015); Xiao et al., Mol. Cancer Ther. 14:1837-47 (2015); Petrocca et al., Cancer Cell 24:182-96 (2013)). A panel of TNBC cell lines were treated with Cpd. No. 4 in combination with BCL-2 and/or BCL-XL inhibitors, and the excess growth inhibition was computed over the Bliss independence model for each combination pairs (Berenbaum, Adv. Cancer Res., 35:269-335 (1981)). ABT-263 (Tse et al., Cancer Res. 68:3421-8 (2008)) and BM-1197 (Bai et al., PLoS One 2014; 9(6):e99404 doi 10.1371/journal.pone.0099404) were selected as dual BCL-2/BCL-XL inhibitors, […] as a selective BCL-XL inhibitor (Tao et al., ASC Med. Chem. Lett. 5:1088-93 (2014)) and ABT-199 as a selective BCL-2 inhibitor (Souers et al., Nat. Med. 19:202-8 (2013)).

MDA-MB-231 xenograft = test: In vivo antitumor activity in MDA-MB-231 xenograft model (Example 25); parameters: species or system SCID mice
Experimental: (§1) For the in vivo efficacy experiments of this example, when tumors reached 80-200 mm^3, SCID mice were randomized into groups. Cpd. A, Cpd. No. 4, Cpd. No. 6, or vehicle control (10% PEG400: 3% Cremophor: 87% PBS, or 2% TPGS:98% PEG200) was given at the dose and duration indicated. Tumor sizes and animal weights were measured 2-3 times per week. Tumor volume (mm^3)=(length×width^2)/2. Tumor growth inhibition was calculated as TGI (%)=(Vc−Vt)/(Vc−Vo)*100, where Vc, Vt are the median of control and treated groups at the end of the study and Vo at the start. All the in vivo studies were performed under an animal protocol approved by the University Committee on Use and Care of Animals of the University of Michigan, in accordance with the recommendations in the Guide for the Care and Use of Laboratory Animals of the National Institutes of Health.
(§2) No. 4 was determined in xenograft tumor models of TNBC cell lines.

MDA-MB-468 xenograft = test: In vivo antitumor activity in MDA-MB-468 xenograft model; parameters: species or system SCID mice
Experimental: as §1, §2

MOLM-13 = test: Cell growth inhibition (CellTiter-Glo), MOLM-13; format: cell-based; details: MOLM-13 cells, 4 days
Experimental: (§3) Cell growth inhibitory activity of representative BET bromodomain degraders was determined using CellTiter-Glo® Luminescent Cell Viability Assay. Cells were seeded in 384-well white opaque cell culture plates at a density of 2,000 cells/well with serially diluted compounds and incubated at 37° C. in an atmosphere of 95% air and 5% CO2 for 4 days. Cell viability was determined using the CellTiter-Glo® Luminescent Cell Viability Assay Kit (Promega, Madison, Wis.) according to the manufacture's instruction. Briefly, a volume of CellTiter-Glo® Reagent equal to the volume of cell culture medium was added to each well, and then the plates were incubated at room temperature for 10-20 minutes. The luminescent signal was measured using a Tecan Infinite M1000 multimode microplate reader (Tecan, Morrisville, N.C.). The half maximal inhibitory concentration (IC50) was calculated using the GraphPad Prism 5 software (GraphPad Software, La Jolla, Calif.).

MDA-MB-231 = test: Cell growth inhibition (CellTiter-Glo), MDA-MB-231; format: cell-based, human; details: Homo sapiens, MDA-MB-231, 96 h, MDA-MB-231 cells, 4 days
Experimental: as §3

Row | SMILES | IC50 (MOLM-13; Homo sapiens, MOLM-13, 96 h) [nM] | IC50 (MDA-MB-231) [nM] | also measured
1 | Cc1c(S(C)(=O)=O)c(-c2cc(F)cc(N3CCN(c4ccc(NS(=O)(=O)c5ccc(N[C@H](CCN6CCC(O)CC6)CSc6ccccc6)c(S(=O)(=O)C(F)(F)F)c5)cc4)CC3)c2)c(-c2ccc(Cl)cc2)n1C(C)C [BM-1197] | – | – | apoptosis induction by the combination of Cpd. No. 4 and BM-1197 (TNBC cell lines [1]; BT-20 and MDA-MB-157 (data not shown)): synergistic apoptosis induction; effect on apoptosis induction by Cpd. No. 4 (TNBC cell lines [1]; MDA-MB-213 cells (FIG. 15)): enhances apoptosis induction by Cpd. No. 4; effect on apoptosis induction by Cpd. No. 4 (TNBC cell lines [1]; MDA-MB-453 cells (FIG. 16)): enhances apoptosis induction by Cpd. No. 4; effect on Cpd. No. 4-induced apoptosis (TNBC cell lines [1]): potentiated; synergy with Cpd. No. 4 (excess growth inhibition over Bliss independence model) (TNBC cell lines [2]): Modest to strong synergy
2 | CC1(C)CCC(c2ccc(Cl)cc2)=C(CN2CCN(c3ccc(C(=O)NS(=O)(=O)c4ccc(N[C@H](CCN5CCOCC5)CSc5ccccc5)c(S(=O)(=O)C(F)(F)F)c4)cc3)CC2)C1 [ABT-263] | – | – | effect on Cpd. No. 4-induced apoptosis (TNBC cell lines [1]): potentiated; synergy with Cpd. No. 4 (excess growth inhibition over Bliss independence model) (TNBC cell lines [2]): Modest to strong synergy
3 | CCn1nc(C2CC2)cc1Nc1nc(C(=O)NCCCCCc2cccc3c2CN(C2CCC(=O)NC2=O)C3=O)nc2[nH]c3cc(-c4c(C)noc4C)c(OC)cc3c12 (centres unmarked) [Cpd. No. 6] | < 0.8 | 1 | tumor growth (MDA-MB-231 xenograft; MDA-MB-231 xenograft model in mice (FIG. 10)): reduce tumor growth; antitumor activity relative to Cpd. A at 50 mg/kg, daily oral dosing, 5 days a week for 3 weeks (MDA-MB-231 xenograft; MDA-MB-231 xenograft model, 5 mg/kg, IV, 3 times per week for 3 weeks): comparable to or stronger than that of Cpd. A; antitumor activity (MDA-MB-231 xenograft; MDA-MB-231 xenograft model, 5 mg/kg, IV, 3 times per week for 3 weeks (FIG. 10)): exerted antitumor activity; tumor growth (MDA-MB-468 xenograft; MDA-MB-468 xenograft model in mice (FIG. 11)): reduce tumor growth; antitumor activity relative to Cpd. A at 50 mg/kg, daily oral dosing, 5 days a week for 3 weeks (MDA-MB-468 xenograft; MDA-MB-468 xenograft model, 5 mg/kg, IV, 3 times per week for 3 weeks): comparable to or stronger than that of Cpd. A; antitumor activity (MDA-MB-468 xenograft; MDA-MB-468 xenograft model, 5 mg/kg, IV, 3 times per week for 3 weeks (FIG. 11)): exerted antitumor activity
4 | CN(C)CC#Cc1ccc(OCCCc2sc(N3CCc4cccc(C(=O)Nc5nc6ccccc6s5)c4C3)nc2C(=O)O)c(F)c1 [A-1155463] | – | – | effect on Cpd. No. 4-induced apoptosis (TNBC cell lines [1]): potentiated; synergy with Cpd. No. 4 (excess growth inhibition over Bliss independence model) (TNBC cell lines [2]): Modest to strong synergy
5 | CCn1nc(C2CC2)cc1Nc1nc(C(=O)NCCCCCCNc2cccc3c2C(=O)N(C2CCC(=O)NC2=O)C3=O)nc2[nH]c3cc(-c4c(C)noc4C)c(OC)cc3c12 (centres unmarked) [compound 11] | 1.6 | 8 | –
6 | CCn1nc(C2CC2)cc1Nc1nc(C(=O)NCCOCCCc2cccc3c2C(=O)N(C2CCC(=O)NC2=O)C3=O)nc2[nH]c3cc(-c4c(C)noc4C)c(OC)cc3c12 (centres unmarked) [Cpd. No. 62] | 3.4 | 24.7 | –
7 | CCn1nc(C2CC2)cc1Nc1nc(C(=O)NCCOCCOCCNc2cccc3c2C(=O)N(C2CCC(=O)NC2=O)C3=O)nc2[nH]c3cc(-c4c(C)noc4C)c(OC)cc3c12 (centres unmarked) [Cpd. No. 13] | – | 267 | IC50 (MOLM-13): 8 nM
8 | CCn1nc(C2CC2)cc1Nc1nc(C(=O)NCCOCCOCCOCCOCCOCCOCCOCCNc2cccc3c2C(=O)N(C2CCC(=O)NC2=O)C3=O)nc2[nH]c3cc(-c4c(C)noc4C)c(OC)cc3c12 (centres unmarked) [compound 16] | 10.2 | 128 | –
9 | CCn1nc(C2CC2)cc1Nc1nc(C(=O)NCCCOCCOCCOCCCNC(=O)COc2cccc3c2C(=O)N(C2CCC(=O)NC2=O)C3=O)nc2[nH]c3cc(-c4c(C)noc4C)c(OC)cc3c12 (centres unmarked) [Cpd. No. 2] | 16.3 | 75.6 | –
10 | CCn1nc(C2CC2)cc1Nc1nc(C(=O)NCCCCCNc2cccc3c2C(=O)N(C2CCC(=O)NC2=O)C3=O)nc2[nH]c3cc(-c4c(C)noc4C)c(OC)cc3c12 (centres unmarked) [compound 10] | 0.9 | 4.8 | –
11 | CCn1nc(C2CC2)cc1Nc1nc(COCCCCNc2cccc3c2C(=O)N(C2CCC(=O)NC2=O)C3=O)nc2[nH]c3cc(-c4c(C)noc4C)c(OC)cc3c12 (centres unmarked) [compound 18] | 2.9 | 5.4 | –
12 | CCn1nc(C2CC2)cc1Nc1nc(C(=O)NCCCCNC(=O)COc2cccc3c2C(=O)N(C2CCC(=O)NC2=O)C3=O)nc2[nH]c3cc(-c4c(C)noc4C)c(OC)cc3c12 (centres unmarked) [Cpd. No. 1] | 12.2 | 49.5 | –

Now from value to compound, other results behind:

Row | IC50 (MOLM-13; Homo sapiens, MOLM-13, 96 h) [nM] | IC50 (MDA-MB-231) [nM] | SMILES | also measured
13 | 8.5 | 41 | CCn1nc(C2CC2)cc1Nc1nc(C(=O)NCCOCCOCCOCCOCCCc2cccc3c2CN(C2CCC(=O)NC2=O)C3=O)nc2[nH]c3cc(-c4c(C)noc4C)c(OC)cc3c12 (centres unmarked) [compound 70] | –
14 | 23.6 | 98.7 | CCn1nc(C2CC2)cc1Nc1nc(C(=O)NCCOCCOCCOCCC(=O)Nc2cccc3c2CN(C2CCC(=O)NC2=O)C3=O)nc2[nH]c3cc(-c4c(C)noc4C)c(OC)cc3c12 (centres unmarked) [Cpd. No. 64] | –
15 | 1.2 | 4.1 | CCn1nc(C2CC2)cc1Nc1nc(C(=O)NCCCOCCOCCOCCNc2cccc3c2CN(C2CCC(=O)NC2=O)C3=O)nc2[nH]c3cc(-c4c(C)noc4C)c(OC)cc3c12 (centres unmarked) [compound 68] | –
16 | 12.1 | 74.9 | CCn1nc(C2CC2)cc1Nc1nc(C(=O)NCCOCCOCCOCCNc2cccc3c2CN(C2CCC(=O)NC2=O)C3=O)nc2[nH]c3cc(-c4c(C)noc4C)c(OC)cc3c12 (centres unmarked) [compound 24] | –
17 | 12.4 | 63.8 | CCn1nc(C2CC2)cc1Nc1nc(C(=O)NCCOCCNc2cccc3c2CN(C2CCC(=O)NC2=O)C3=O)nc2[nH]c3cc(-c4c(C)noc4C)c(OC)cc3c12 (centres unmarked) [compound 22] | –
18 | 1.2 | 4.2 | CCn1nc(C2CC2)cc1Nc1nc(C(=O)NCCCOCCOCCOCC#Cc2cccc3c2CN(C2CCC(=O)NC2=O)C3=O)nc2[nH]c3cc(-c4c(C)noc4C)c(OC)cc3c12 (centres unmarked) [compound 72] | –
19 | 0.7 | 1.7 | CCn1nc(C2CC2)cc1Nc1nc(C(=O)NCCCOCCCCOCCCNc2cccc3c2C(=O)N(C2CCC(=O)NC2=O)C3=O)nc2[nH]c3cc(-c4c(C)noc4C)c(OC)cc3c12 (centres unmarked) [compound 15] | –
20 | 47.3 | 275 | CCn1nc(C2CC2)cc1Nc1nc(C(=O)NCCCCNc2cccc3c2CN(C2CCC(=O)NC2=O)C3=O)nc2[nH]c3cc(-c4c(C)noc4C)c(OC)cc3c12 (centres unmarked) [compound 66] | –
21 | 18.2 | 94.8 | CCn1nc(C2CC2)cc1Nc1nc(C(=O)NCCCOCCOCCOCCCNC(=O)CNc2cccc3c2C(=O)N(C2CCC(=O)NC2=O)C3=O)nc2[nH]c3cc(-c4c(C)noc4C)c(OC)cc3c12 (centres unmarked) [Cpd. No. 3] | –
22 | 0.7 | 2 | CCn1nc(C2CC2)cc1Nc1nc(C(=O)NCCCOCCOCCOCCCNc2cccc3c2CN(C2CCC(=O)NC2=O)C3=O)nc2[nH]c3cc(-c4c(C)noc4C)c(OC)cc3c12 (centres unmarked) [compound 67] | –
